One block for each compound: values may come before it.
What was measured:
[1] = solubility of glycerol monolaurate in lauryl lactate / EVA 40; format: physicochemical; details: for Wt % GML in solution: based on GML solubility of 350 mg/g
Text: The unexpected effects of the specific weight percentages of the components of the permeation enhancer mixture are believed to be due, in part, to the solubility of the monoglyceride in the lactic acid ester. It is known that monoglycerides by themselves are effective permeation enhancers. The enhancement occurs by the solubilization of the monoglyceride in the lipid layer of the skin. The solubilization of the monoglyceride in the lipid layer increases as a function of lactic acid ester concentration. […] Thus, the amount of GML dissolved, ie, free GML, is dictated by and proportional to the lauryl lactate loading in the polymer.

[2] = in vitro permeation of oxybutynin through human epidermis at 35° C., EVA 40 systems on horizontal permeation cells (Examples 4-5); format: in vitro ADME; details: R- or S-oxybutynin versus racemate
Procedure: Oxybutynin, glycerol monolaurate and lauryl lactate were then added.
When EVA 40 was used the mixture was blended, cooled and calendered to a 5 mil thick film. This film was then laminated to an acrylic contact adhesive (MSP041991P, 3M) on one side and Medpar® backing (3M) on the opposite side. The laminate was then cut into 2.54 cm^2 circles using a stainless steel punch. Circular pieces of human-epidermis were mounted on horizontal permeation cells with the stratum corneum facing the donor compartment of the cell. The release liner of the system was then removed and the system was centered over the stratum corneum side of the epidermis.

[3] = aqueous solution 25 mg/mL, 0.05 M isotonic phosphate buffer, 20 μm polybutadiene film, cited from earlier work
[4] = format: in vivo, human; details: after the initial application; transdermal with permeation enhancing mixture
Procedure: Therapeutic blood levels can be achieved within approximately 6-10 hours after the initial application, and blood concentrations are maintained with subsequent system applications. The range of desired and achievable system permeation rates of oxybutynin, arriving through the skin from a limited area, is 1-20 mg over a period of 24 hours. The system application is easily adapted for shorter or longer duration treatments, but generally 72 hours is the duration for a single application.

Wt % GML in solution ([1]; 12% lauryl lactate in EVA 40): 4.2%
Wt % GML in solution ([1]; 20% lauryl lactate in EVA 40): 7.0%
Wt % GML in solution ([1]; 27% lauryl lactate in EVA 40): 9.5%
Wt % GML in solution ([1]; 30% lauryl lactate in EVA 40): 10.5%
solubility in EVA 40 matrix ([1]; EVA 40 matrix): practically insoluble
solubility of glycerol monolaurate in lauryl lactate ([1]; solution stirred): 350 mg/g of solution
SMILES: CCCCCCCCCCCC(=O)OCC(O)CO (centres unmarked) [GML, glycerol monolaurate]

SMILES: CCN(CC)CC#CCOC(=O)[C@](O)(c1ccccc1)C1CCCCC1 [R-oxybutynin]
flux of enantiomer relative to racemate, in words [2]: approximately equivalent to that of the racemate

SMILES: CCN(CC)CC#CCOC(=O)[C@@](O)(c1ccccc1)C1CCCCC1 [S-oxybutynin]
flux of enantiomer relative to racemate, in words [2]: approximately equivalent to that of the racemate

SMILES: CCN(CC)CC#CCOC(=O)C(O)(c1ccccc1)C1CCCCC1 (centres unmarked) [Oxybutynin]
in vitro release rate (per area) [3]: ~10 μg/cm^2.hr
in vitro release rate (amount over 24 hours) ([3]; through a 49 cm^2 area): approximately 12 mg over 24 hours
time to therapeutic blood levels [4]: 6 to 10 h
